Measured values reported in ChEMBL document CHEMBL5380820, “Design and Discovery of Novel Cyclic Peptides as EDPs-EBP Interaction Inhibitors for the Treatment of Liver Fibrosis” (J Med Chem, 2023).
The source made the active and inactive calls. No cut-off for these calls is given here. Where a SMILES comes first, the peptide text is derived from it. Bridges are numbered along the chain shown (N, C = ends).

Assays:
LX-2 [1] = experiment: Antifibrotic activity against TGF-beta induced human LX2 cells assessed as inhibition of neuraminidase activity using NA fluorogenic substrate by measuring fluorescence intensity relative to control; format: functional
LX-2 [2] = experiment: Antifibrotic activity against TGF-beta induced human LX2 cells assessed as inhibition of alpha-SMA expression by measuring fluorescence intensity relative to control; format: functional
LX-2 [3] = experiment: Antifibrotic activity against TGF-beta induced human LX2 cells assessed as inhibition of collagen I expression by measuring fluorescence intensity relative to control; format: functional
LX-2 [4] = experiment: Antifibrotic activity against TGF-beta induced human LX2 cells assessed as reduction of alpha-SMA expression measured at 10 uM for 24 hrs by measuring fluorescence intensity relative to control; format: functional; design: scale not given: the % may be the effect or the level left
LX-2 [5] = experiment: Antifibrotic activity against TGF-beta induced human LX2 cells assessed as reduction of collagen I expression measured at 10 uM for 24 hrs by measuring fluorescence intensity relative to control; format: functional; design: scale not given: the % may be the effect or the level left
LX2 [6] = experiment: Inhibition of elastin receptor complex elastin binding protein subunit in human LX2 cells assessed as inhibition of EDP induced ERK phosphorylation treated at 10 uM for 24 hrs by Western blot analysis; format: cell-based
LX2 [7] = experiment: Inhibition of elastin receptor complex elastin binding protein subunit in human LX2 cells assessed as inhibition of EDP induced PI3K phosphorylation treated at 10 uM for 24 hrs by Western blot analysis; format: cell-based
LX2 [8] = experiment: Inhibition of elastin receptor complex elastin binding protein subunit in human LX2 cells assessed as inhibition of EDP induced AMPK phosphorylation treated at 10 uM for 24 hrs by Western blot analysis; format: cell-based
LX-2 [9] = experiment: Antiproliferative activity against TGF-beta induced human LX2 cells assessed as decrease in cell proliferation at 10 uM for 24 hrs by BeyoClick EdU cells proliferation kit with Alex Fluor 488 and DAPI staining analysis; format: functional, cell-based
LX-2 [10] = experiment: Antifibrotic activity against TGF-beta induced human LX2 cells assessed as reduction of alpha-SMA expression derived peptide measured by Western blotting analysis; format: functional, cell-based; conditions: dose 0.01-100 µmol/L
Mus musculus [11] = experiment: Antifibrotic activity in CCl4-induced C57BL/6 mouse model of liver fibrosis assessed as reduction in serum ALT level treated at 150 ug/kg, ip daily for 3 weeks; format: functional, organism-based; conditions: dose 150.0 µg/kg
Mus musculus [12] = experiment: Antifibrotic activity in CCl4-induced C57BL/6 mouse model of liver fibrosis assessed as reduction in serum AST level treated at 150 ug/kg, ip daily for 3 weeks; format: functional, organism-based; conditions: dose 150.0 µg/kg
LX-2 [13] = experiment: Inhibition of cell migration in human LX2 cells assessed as decreased cell number in wound area measured at 0 to 24 hrs by wound healing assay; format: functional, cell-based; conditions: time 0-24 hrs
Mus musculus [14] = experiment: Antifibrotic activity in CCl4-induced C57BL/6 mouse model of liver fibrosis assessed as reduction of collagen deposition in liver treated at 150 ug/kg, ip daily for 3 weeks fasted for 9 hrs after last dose and sacrificed after 8 hrs of fasting by hematoxylin and eosin staining analysis; format: functional, organism-based; conditions: dose 150.0 µg/kg, time 3.033 weeks
Mus musculus [15] = experiment: Antifibrotic activity in CCl4-induced C57BL/6 mouse model of liver fibrosis assessed as decrease of hydroxyproline content in liver treated at 150 ug/kg ip daily for 3 weeks fasted for 9 hrs after last dose and sacrificed after 8 hrs of fasting by […] analysis; format: functional, organism-based; conditions: dose 150.0 µg/kg, time 3.033 weeks
Mus musculus [16] = experiment: Antifibrotic activity in CCl4-induced C57BL/6 mouse model of liver fibrosis assessed as reduction in alpha-SMA level treated at 150 ug/kg, ip daily for 3 weeks by Western blo analysis; format: functional, organism-based; conditions: dose 150.0 µg/kg
[17] = Stability in mouse serum assessed as half life measured by RP-HPLC-MS analysis; format: ADME, cell-free
[18] = Tmax in Sprague-Dawley rat plasma at 0.1 mg/kg, sc by HPLC-MS/MS analysis; format: ADME, organism-based
[19] = Half life in Sprague-Dawley rat plasma at 0.1 mg/kg, sc by HPLC-MS/MS analysis; format: ADME, organism-based
LX-2 [20] = experiment: Antifibrotic activity against TGF-beta induced human LX2 cells assessed as reduction of alpha-SMA expression measured at 10 uM for 24 hrs by measuring fluorescence intensity; format: functional, cell-based
LX-2 [21] = experiment: Antifibrotic activity against TGF-beta induced human LX2 cells assessed as reduction of collagen I expression measured at 10 uM for 24 hrs by measuring fluorescence intensity; format: functional, cell-based
[22] = Stability in mouse serum measured at 0 to 48 hrs by RP-HPLC-MS analysis; format: ADME, cell-free; conditions: time 0-48 hrs
[23] = Tmax in Sprague-Dawley rat plasma at 0.6 mg/kg, sc by HPLC-MS/MS analysis; format: ADME, organism-based
[24] = Half life in Sprague-Dawley rat plasma at 0.6 mg/kg, sc by HPLC-MS/MS analysis; format: ADME, organism-based

| Compound | inhibition (INH) (LX-2 [1]) | inhibition (INH) (LX-2 [2]) | inhibition (INH) (LX-2 [3]) | Activity (LX-2 [4]) | Activity (LX-2 [5]) | inhibition (LX2 [6]) | inhibition (LX2 [7]) | inhibition (LX2 [8]) | Activity (LX-2 [9]) | Activity (LX-2 [10]) | Activity (Mus musculus [11]) | Activity (Mus musculus [12]) | Activity (Mus musculus [14]) | Activity (Mus musculus [16]) | also measured |
| --- | --- | --- | --- | --- | --- | --- | --- | --- | --- | --- | --- | --- | --- | --- | --- |
| CC(C)C[C@H](NC(=O)[C@@H]1CCCN1C(=O)[C@H](CO)NC(=O)[C@H](C)NC(=O)[C@@H]1CCC(=O)N[C@@H](C(C)C)C(=O)N[C@@H](C(C)C)C(=O)NCC(=O)N[C@@H](CO)C(=O)N2CCC[C@H]2C(=O)N[C@@H](CO)C(=O)N[C@@H](C)C(=O)N[C@@H](CCC(N)=O)C(=O)N[C@@H](CC(=O)O)C(=O)N1)C(=O)O (VVGSPSAQDEASPL-OH; lactam N-10) | 68% | 34.8% | 33.5% | ~50% | ~50% | Active | Active | Active | Active | – | – | – | – | – | – |
| CC(C)[C@@H]1NC(=O)CNC(=O)[C@@H]2CCCN2C(=O)[C@H](CO)NC(=O)[C@H](C)NC(=O)[C@H](CCC(=O)O)NC(=O)[C@H](CC(=O)O)NC(=O)[C@H](CCC(N)=O)NC(=O)[C@H](C)NC(=O)[C@H](Cc2ccccc2)NC(=O)[C@@H]2CCCN2C(=O)[C@H](CO)NC(=O)CNC(=O)[C@H](C(C)C)NC1=O (cyclo(AQDEASPGVVGSPF)) | 40.9% | 0.1% | – | – | – | – | – | – | – | inactive | Active | Active | – | – | inhibition (LX-2 [3]): inactive |
| CC(C)C[C@@H]1NC(=O)[C@@H]2CCCN2C(=O)[C@H](CO)NC(=O)[C@H](C)NC(=O)[C@H](CCC(=O)O)NC(=O)[C@H](CC(=O)O)NC(=O)[C@H](CCC(N)=O)NC(=O)[C@H](C)NC(=O)[C@H](CO)NC(=O)[C@@H]2CCCN2C(=O)[C@H](CO)NC(=O)CNC(=O)[C@H](C(C)C)NC(=O)[C@H](C(C)C)NC1=O (cyclo(AQDEASPLVVGSPS)) | 79.8% | 45.3% | 39.7% | ~50% | ~50% | Active | Active | Active | Active | – | – | – | Active | Active | inhibition (LX-2 [13]): Active; Activity (Mus musculus [15]): Active; half-life [17]: > 36 h; Tmax [18]: 10.2 min; half-life [19]: 19.8 min |
| H-VVGSPSAQDEASPL-NH2 | 37% | 27.5% | 22.5% | ~50% | ~50% | Active | Active | Active | Active | Dose-Dependent Effect | Active | Active | Active | Active | Activity (LX-2 [20]): Active; Activity (LX-2 [21]): Active; Stability [22]: 40%; Tmax [23]: 4.8 min; half-life [24]: 4.8 min |
